According to patent publication US11135186B2, “Regulators of the endoplasmic reticulum proteostasis network” (The Scripps Research Institute, priority 2015, dated 2021):

Tests used:
[1] = system: XBP1-RLuc reporter (IRE1/XBP1s arm of the UPR); test: XBP1-RLuc splicing reporter, 1536-well screen in HEK293T-Rex cells; format: cell-based; details: % Tg (500 nM) activation, triplicate confirmation screen at 6.8 μM, 18 h
Description: To evaluate the selectivity of our screening hits for ATF6, we employed an alternative luciferase reporter to measure activation of the IRE1/XBP1s arm of the UPR. This reporter contains Renilla luciferase (RLuc) expressed out of frame downstream of the XBP1 splice site, preventing RLuc translation in the absence of stress (FIG. 2b)^36,37. In response to IRE1 activation, the 26-nt XBP1 intron is removed, producing a frame shift that allows for RLuc translation and activity. Robust dose-dependent activation of the XBP1-RLuc reporter upon addition of the ER stressors Tg and Tm was confirmed in HEK293T-Rex cells stably expressing the XBP1-RLuc reporter, producing a Z′ score of 0.75 for Tg.
(§1) HEK293T-Rex cells incorporating either the ERSE-FLuc or XBP1s-RLuc reporters were collected by trypsinization and resuspended at a density of 500,000 cells per mL. The assay was started by dispensing 5 μL of cell suspension into each well of white, solid-bottom 1536-well plates using a flying reagent dispenser (FRD) and placed into an online incubator 3 h. Cells were then treated with 34 nL/well of either test compounds to give final concentrations of 6.8 μM, DMSO (Low control, final concentration 0.68%, 0% activation) or […] of Delta-7 thapsigargin (High control, final concentration 500 nM, 100% activation). Plates were incubated for 18 h at 37° C., removed from the incubator and equilibrated to room temperature for 10 min. Luciferase activity was detected by addition of 5 μL of ONE-Glo reagent (Promega) to each well. After a 10 min incubation time, light emission was measured with the ViewLux reader (PerkinElmer). The percent activation of each test compound was calculated as follows: % Activation=100*(Test Compound−Median Low Control)/(Median High Control ˜Median Low Control).

[2] = system: ERSE-FLuc reporter (ATF6 arm of the UPR); test: ERSE-FLuc reporter, 1536-well confirmation screen in HEK293T-Rex cells; format: cell-based; details: % Tg (500 nM) activation, triplicate confirmation screen at 6.8 μM, 18 h
Description: We employed a transcriptional reporter that quantifies activation of the ATF6 arm of the UPR in HEK293T-Rex cells. This reporter contains a fragment of the UPR-inducible BiP promoter, including three ER stress-responsive elements (ERSEs), driving expression of firefly luciferase (ERSE-FLuc; FIG. 1a)^34. We previously employed this reporter for a small-scale screen using the 1280 member compound Library of Pharmacologic Active Compounds (LoPAC) to find small molecules that activate the UPR^8. […] Optimization and miniaturization of this assay to 1536-well format was performed at the Scripps Research Institute Molecule Screening Center (SRIMSC).
as §1

[3] = system: BiP expression in ALMC-2 cells; test: BiP qPCR in ALMC-2 cells; format: cell-based, human; details: 10 μM, 6 h
Experimental: Cells were treated as described at 37° C., washed with Dulbecco's phosphate-buffered saline (Gibco), and then RNA was extracted using the RNeasy Mini Kit (Qiagen). qPCR reactions were performed on cDNA prepared from 500 ng of total cellular RNA using the QuantiTect Reverse Transcription Kit (Qiagen). The FastStart Universal SYBR Green Master Mix (Roche), cDNA, and appropriate human primers^4 or mouse primers (BiP; […] (SEQ ID NO: 5) and […] (SEQ ID NO: 6) purchased from Integrated DNA Technologies were used for amplifications (45 cycles of 1 min at 95° C., 10 s at 95° C., 30 sec at 60° C.) in an ABI 7900HT Fast Real Time PCR machine. Primer integrity was assessed by a thermal melt to confirm homogeneity and the absence of primer dimers. Transcripts were normalized to the housekeeping gene Rplp2 and all measurements were performed in triplicate. Data were analyzed using the RQ Manager and DataAssist 2.0 softwares (ABI).

[4] = system: ERSE-FLuc reporter (ATF6 arm of the UPR); test: ERSE-FLuc reporter, 96-well, HEK293T-Rex cells (SAR and S1P inhibition); format: cell-based; details: for ERSE reporter activity relative to 147: HEK293T-Rex, 10 μM
Experimental: HEK293T-Rex cells incorporating the ERSE-FLuc reporter and HEK293^DAX cells were plated approximately 20,000 cells/well in flat-bottomed, black 96-well assay plates (Costar, Corning, Inc.) overnight prior to compound administration. Cells were treated with compounds as described for 12-18 h then the plates were equilibrated to room temperature and 50 μL of SteadyLite (PerkinElmer) was added to each well. Luminescence activity was measured in a Safire II microplate reader with a 1000 ms integration time.

[5] = system: endogenous secretory proteome of HepG2^ATF6 cells; test: [35S] metabolic labeling, total secreted protein from HepG2^ATF6 cells; format: cell-based; details: 15 h pretreatment, 10 μM compound or 1 μM Tg, 4 h chase
Experimental: (§2) HepG2 cells or HEK293T cells plated on poly-D-lysine coated plates were metabolically labeled in DMEM-Cys/-Met (CellGro) supplemented with glutamine, penicillin/streptomycin, dialyzed fetal bovine serum, and EasyTag EXPRESS^35S Protein Labeling Mix (Perkin Elmer) for 30 min. Cells were washed twice with complete media and incubated in prewarmed DMEM for the indicated times. Media or lysates were harvested at the indicated times. Lysates were prepared in RIPA buffer with fresh protease inhibitor cocktail (Roche). FLAG tagged TTR variants or ALLC were immunopurified using M1 anti-FLAG agarose beads (Sigma-Aldrich) and washed three times with RIPA buffer. The immunoisolates were then eluted by boiling in Laemmli buffer and separated on SDS-PAGE. For total secreted media, 15 uL aliquots from media incubated for 4 hrs on pulsed cells were run on a SDS-PAGE. The gels were then dried, exposed to phosphorimager plates (GE Healthcare), and imaged with a Typhoon imager. Band intensities were quantified by densitometry in ImageQuant. Fraction secreted was calculated using the equation: fraction secreted=[extracellular [^35S]-LC signal at t=t/(extracellular [^35S]-LC signal at t=0+intracellular [^35S]-LC signal at t=0)]. Fraction remaining was calculated using the equation: [(extracellular [^35S]-LC signal at t=t+intracellular [^35S]-LC signal at t=t)/(extracellular [^35S]-LC signal at t=0+ intracellular [^35S]-LC signal at t=0)].

^FTTTR^A25T = test: [35S] metabolic labeling, secretion of flag-tagged TTR^A25T from HepG2^ATF6 cells; format: cell-based; details: 15 h pretreatment, 10 μM compound or 1 μM Tg, 4 h chase
Experimental: as §2

HEK293T-Rex cells = test: mRNA-Seq transcriptional profiling and geneset analysis in HEK293T-Rex cells; format: cell-based, human; details: 6 h, compounds 10 μM, Tg 1 μM
Experimental: HEK293T-Rex and HEK293^DAX cells in 12-well plates were treated for 6 h with vehicle, 1 μM Tg, 10 μM TMP (in HEK293^DAX), or 10 μM 132, 147 or 263 in biological triplicate at 37° C. Cells were harvested, and RNA was extracted using the RNeasy Mini Kit (Qiagen). Total RNA was quantified using NanoDrop (ND-1000). Samples were run on the Illuina HiSeq system.
Single end, 100 bp-long reads from RNA-Seq experiments were aligned to the GRCh37.p13 human genome reference assembly using SeqMan NGen 11.2.1 (DNAStar, Inc.). The assembly data were then imported into ArrayStar with QSeq (DNAStar, Inc.) to quantify the gene expression levels. The sequence counts were normalized to reads per kilobase per million (RPKM) after filtering out non-mRNA sequence features. The statistical significance of the difference between the expression levels of a gene under different conditions was assessed using a Student's t-test with the Benjamini-Hochberg multiple testing correction.
ATF6- and XBP1s-selective target genes were identified from transcriptional profiles of HEK293D^X cells following stress-independent activation of TMP-dependent DHFR-ATF6 and/or tetracycline inducible XBP1s, as previously described^4. PERK-selective target genes were identified from^8. Only ATF6-, XBP1s- or PERK-selective genes induced >1.5 fold in Tg-treated samples were used in this analysis. The log transformed fold-increase of these target genes in HEK293T-Rex cells treated with the respective ER proteostasis regulators were then normalized to the log transformed fold increase of these genes induced by Tg treatment. The plots shown in FIG. 5b-e were prepared as box and whisker plots using Kaleidograph. Differential activation of the ATF6, XBP1s, and PERK genesets was assessed by one-way ANOVA and significance of pairwise comparison confirmed by unpaired t-test. An analogous strategy was employed to prepare the heat map using transcriptional data from the MGE analysis.

^FTTTR^WT = test: [35S] metabolic labeling, secretion of flag-tagged TTR^WT from HepG2^ATF6 cells; format: cell-based; details: 15 h pretreatment, 10 μM compound or 1 μM Tg, 4 h chase
Experimental: as §2

SMILES: CCCCNNC(=O)c1ccc(Br)cc1 [Compound 5]
- % XBP1-RLuc activation [1]: 9.1 ± 0.7%
- % ERSE-FLuc activation [2]: 60.9 ± 6.0%

SMILES: CCCc1cc(C(=O)Nc2cc(C)ccc2O)no1 [Compound 145]
- % XBP1-RLuc activation [1]: 24.5 ± 4.7%
- % ERSE-FLuc activation [2]: 83.4 ± 6.3%
- expression of the ATF6 target gene BiP in ALMC-2 cells [3]: induced

SMILES: O=C1N/C(=C\c2ccc(O)cc2)C(=O)N1c1cccc(Cl)c1 [Compound 238]
- % ERSE-FLuc activation [2]: 68.2 ± 5.7%

SMILES: Cc1cc(C)c(OCC(=O)N/N=C/c2ccc(Cl)c(O)c2)c(Br)c1 [Compound 258]
- % XBP1-RLuc activation [1]: 32.6 ± 1.0%
- % ERSE-FLuc activation [2]: 28.6 ± 6.1%

SMILES: COc1ccc(CCC(=O)Nc2cc(C)ccc2O)cc1 [RP14]
- ERSE reporter activity relative to 147 [4]: slightly decrease or do not change

SMILES: COc1ccccc1CCC(=O)Nc1cc(C)ccc1O [RP23]
- ERSE reporter activity relative to 147 [4]: slightly decrease or do not change

SMILES: Cc1ccc(O)c(NC(=O)CCc2ccccc2F)c1 [RP24]
- ERSE reporter activity relative to 147 [4]: increase

SMILES: Cc1ccc(O)c(NC(=O)CCc2ccccc2C)c1 [RP25]
- ERSE reporter activity relative to 147 [4]: slightly decrease or do not change

SMILES: Cc1ccc(O)c(NC(=O)CCc2ccccc2Cl)c1 [RP26]
- ERSE reporter activity relative to 147 [4]: increase

SMILES: Cc1ccc(O)c(NC(=O)CCc2c(Cl)cccc2Cl)c1 [RP27]
- ERSE reporter activity relative to 147 [4]: decreases activity

SMILES: C/C=C(/C)C(=O)O[C@H]1C(C)=C2[C@H]([C@@H]1OC(=O)CCCCCCC)[C@@](C)(OC(C)=O)C[C@H](OC(=O)CCC)[C@@]1(O)[C@H]2OC(=O)[C@@]1(C)O [Tg, thapsigargin, reference compound]
- accumulation of [35S]-labeled protein in media (total secreted proteome) [5]: significantly impaired
- ^FTTTR^A25T secretion (in words) (^FTTTR^A25T): reduced
- BiP mRNA-Seq fold change (relative to Vh) (HEK293T-Rex cells; ATF6-selective gene): 11.6 fold
- GRP94 mRNA-Seq fold change (relative to Vh) (HEK293T-Rex cells; ATF6-selective gene): 4.2 fold
- SEL1L mRNA-Seq fold change (relative to Vh) (HEK293T-Rex cells; ATF6-selective gene): 7.6 fold
- DNAJB1 mRNA-Seq fold change (relative to Vh) (HEK293T-Rex cells; HSF1 target gene): 0.5 fold
- HSPA1A mRNA-Seq fold change (relative to Vh) (HEK293T-Rex cells; HSF1 target gene): 0.3 fold
- HSPA8 mRNA-Seq fold change (relative to Vh) (HEK293T-Rex cells; HSF1 target gene): 0.3 fold
- ASNS mRNA-Seq fold change (relative to Vh) (HEK293T-Rex cells; PERK target gene): 4.2 fold
- DDIT3 (CHOP) mRNA-Seq fold change (relative to Vh) (HEK293T-Rex cells; PERK target gene): 13.2 fold
- TrIB3 mRNA-Seq fold change (relative to Vh) (HEK293T-Rex cells; PERK target gene): 8.2 fold
- ERdj3 mRNA-Seq fold change (relative to Vh) (HEK293T-Rex cells; XBP1s- or ATF6-target gene): 4.0 fold
- HYOU1 mRNA-Seq fold change (relative to Vh) (HEK293T-Rex cells; XBP1s- or ATF6-target gene): 6.1 fold
- p58IPK mRNA-Seq fold change (relative to Vh) (HEK293T-Rex cells; XBP1s- or ATF6-target gene): 3.9 fold
- DNAJC10 mRNA-Seq fold change (relative to Vh) (HEK293T-Rex cells; XBP1s-selective gene): 2.1 fold
- HSPA13 mRNA-Seq fold change (relative to Vh) (HEK293T-Rex cells; XBP1s-selective gene): 4.2 fold
- SEC24D mRNA-Seq fold change (relative to Vh) (HEK293T-Rex cells; XBP1s-selective gene): 6.6 fold
- ERSE-FLuc activation on co-addition of the S1P inhibitor PF-429242 ([4]; PF-429242 10 μM, 18 h, regulators 10 μM, Tg 500 nM): impeded
- ^FTTTR^WT secretion (in words) (^FTTTR^WT): reduced
